Like-named read-outs stand apart in the source and are kept apart here.
Molecular target: T1, soybean LOX type 1b (sLOX-1) (Glycine max, UniProt P08170)
T1 sequence (P08170 1-839): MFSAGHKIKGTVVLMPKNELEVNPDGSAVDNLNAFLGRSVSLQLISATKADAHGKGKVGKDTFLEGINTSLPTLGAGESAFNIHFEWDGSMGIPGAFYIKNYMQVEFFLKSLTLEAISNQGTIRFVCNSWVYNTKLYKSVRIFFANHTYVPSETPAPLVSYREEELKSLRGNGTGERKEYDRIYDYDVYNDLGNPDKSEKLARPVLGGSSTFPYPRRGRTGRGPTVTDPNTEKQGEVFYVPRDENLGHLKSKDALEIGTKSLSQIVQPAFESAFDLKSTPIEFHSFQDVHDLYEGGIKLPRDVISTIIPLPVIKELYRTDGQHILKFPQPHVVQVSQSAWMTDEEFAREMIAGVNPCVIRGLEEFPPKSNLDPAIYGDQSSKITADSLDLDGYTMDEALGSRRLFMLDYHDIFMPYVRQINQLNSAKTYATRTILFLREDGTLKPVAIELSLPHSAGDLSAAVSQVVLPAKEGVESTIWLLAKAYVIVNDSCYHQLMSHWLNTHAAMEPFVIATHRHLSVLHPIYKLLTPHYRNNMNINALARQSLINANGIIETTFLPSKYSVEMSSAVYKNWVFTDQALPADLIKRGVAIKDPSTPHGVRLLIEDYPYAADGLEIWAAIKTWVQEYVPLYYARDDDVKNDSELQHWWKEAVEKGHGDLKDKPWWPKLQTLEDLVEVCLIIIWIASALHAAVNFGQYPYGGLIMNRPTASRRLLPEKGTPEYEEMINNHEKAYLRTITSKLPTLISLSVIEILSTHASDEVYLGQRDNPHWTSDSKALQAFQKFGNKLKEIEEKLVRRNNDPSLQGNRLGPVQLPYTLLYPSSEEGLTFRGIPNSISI
Assay: Soybean lipoxygenase inhibition study in vitro
Format: biochemical
Procedure: For the evaluation of lipoxygenase inhibition soybean LOX type 1b was used as reported previously. The selection was based on the structural and functional similarity of sLOX-1 with mammalian LOX [36, 50, 51, 52] which makes it the most commonly used LOX enzyme in drug screening, followed by sLOX-3 [40].
The assay conditions were as previously reported. Different compound concentrations were used for the calculation of IC50 values. The experiments were performed in triplicate.

[1] = printed as negative values (−log of IC50 in µM), read-out: pIC50 (converted)
[2] = soybean LOX type 1b, means of three determinations, deviation <10% of the mean, read-out: IC50
[3] = Table 6, unit inferred, same values as Table 5, read-out: IC50

| SMILES | IC50 [1] | IC50 [2] | IC50 [3] |
| --- | --- | --- | --- |
| COc1c(C)c2c(c(O)c1C/C=C(\C)CCC(=O)Nc1nc(-c3ccncc3)cs1)C(=O)OC2 [Compound 7, (E)-6-(4-Hydroxy-6-methoxy-7-methyl-3-oxo-1,3-dihydroisobenzofuran-5-yl)-4-methyl-N-(4-(pyridin-4-yl)thiazol-2-yl)hex-4-enamide] | 78.7 µM | 78.8 µM | – |
| CCOC(=O)Cc1csc(NC(=O)CC/C(C)=C/Cc2c(O)c3c(c(C)c2OC)COC3=O)n1 [Compound 6, (E)-Ethyl-2-(2-(6-(4-hydroxy-6-methoxy-7-methyl-3-oxo-1,3-dihydroisobenzofuran-5-yl)-4-methylhex-4-enamido)thiazol-4-yl)acetate] | 30 µM | 30 µM | – |
| COc1c(C)c2c(c(O)c1C/C=C(\C)CCC(=O)Nc1nc3c(s1)CCC3)C(=O)OC2 [Compound 14, (E)-N-(5,6-Dihydro-4H-cyclopenta[d]thiazol-2-yl)-6-(4-hydroxy-6-methoxy-7-methyl-3-oxo-1,3-dihydroisobenzofuran-5-yl)-4-methylhex-4-enamide] | – | 31.2 µM | – |
| COc1c(C)c2c(c(O)c1C/C=C(\C)CCC(=O)Nc1nc(-c3cccnc3)cs1)C(=O)OC2 [Compound 8] | 89.9 µM | 90 µM | 90 µM |
| COc1c(C)c2c(c(O)c1C/C=C(\C)CCC(=O)Nc1nc3ccccc3s1)C(=O)OC2 [Compound 10, (E)-N-(Benzo[d]thiazol-2-yl)-6-(4-hydroxy-6-methoxy-7-methyl-3-oxo-1,3-dihydroisobenzofuran-5-yl)-4-methylhex-4-enamide] | 89.9 µM | 90 µM | – |
| COc1c(C)c2c(c(O)c1C/C=C(\C)CCC(=O)Nc1nc3c(s1)CCCC3)C(=O)OC2 [Compound 12, (E)-6-(4-Hydroxy-6-methoxy-7-methyl-3-oxo-1,3-dihydroisobenzofuran-5-yl)-4-methyl-N-(4,5,6,7-tetrahydrobenzo[d]thiazol-2-yl)hex-4-enamide] | – | 61.2 µM | – |
| COc1c(C)c2c(c(O)c1C/C=C(\C)CCC(=O)Nc1nc(-c3ccccn3)cs1)C(=O)OC2 [Compound 9, (E)-6-(4-Hydroxy-6-methoxy-7-methyl-3-oxo-1,3-dihydroisobenzofuran-5-yl)-4-methyl-N-(4-(pyridin-2-yl)thiazol-2-yl)hex-4-enamide] | 2.5 µM | 2.5 µM | 2.5 µM |
| CCOC(=O)c1sc(NC(=O)CC/C(C)=C/Cc2c(O)c3c(c(C)c2OC)COC3=O)nc1C [Compound 5, (E)-Ethyl-2-(6-(4-hydroxy-6-methoxy-7-methyl-3-oxo-1,3-dihydroisobenzofuran-5-yl)-4-methylhex-4-enamido)-4-methylthiazole-5-carboxylate] | – | 22.5 µM | 22.5 µM |
| COc1c(C)c2c(c(O)c1C/C=C(\C)CCC(=O)Nc1nc3c(s1)CCCCC3)C(=O)OC2 [Compound 13, (E)-6-(4-Hydroxy-6-methoxy-7-methyl-3-oxo-1,3-dihydroisobenzofuran-5-yl)-4-methyl-N-(5,6,7,8-tetrahydro-4H-cyclohepta[d]thiazol-2-yl)hex-4-enamide] | – | 25 µM | – |

Now from value to compound:

| IC50 [1] | IC50 [2] | IC50 [3] | SMILES |
| --- | --- | --- | --- |
| 43.8 µM | 43.7 µM | – | COc1c(C)c2c(c(O)c1C/C=C(\C)CCC(=O)Nc1nc(C)c(C)s1)C(=O)OC2 [Compound 3, (E)-N-(4,5-Dimethylthiazol-2-yl)-6-(4-hydroxy-6-methoxy-7-methyl-3-oxo-1,3-dihydroisobenzofuran-5-yl)-4-methylhex-4-enamide] |
| – | 90 µM | – | COc1c(C)c2c(c(OC)c1C/C=C(\C)CCC(=O)Nc1ncc(C)s1)C(=O)OC2 [Compound 16, (E)-6-(4,6-Dimethoxy-7-methyl-3-oxo-1,3-dihydroisobenzofuran-5-yl)-4-methyl-N-(5-methylthiazol-2-yl)hex-4-enamide] |
| 22.5 µM | 22.5 µM | 22.5 µM | COc1c(C)c2c(c(O)c1C/C=C(\C)CCC(=O)Nc1ncc(C)s1)C(=O)OC2 [Compound 2, (E)-6-(4-Hydroxy-6-methoxy-7-methyl-3-oxo-1,3-dihydroisobenzofuran-5-yl)-4-methyl-N-(5-methylthiazol-2-yl)hex-4-enamide] |
| 31.3 µM | 31.2 µM | 31.2 µM | COc1c(C)c2c(c(O)c1C/C=C(\C)CCC(=O)Nc1nc(C)cs1)C(=O)OC2 [Compound 4, (E)-6-(4-Hydroxy-6-methoxy-7-methyl-3-oxo-1,3-dihydroisobenzofuran-5-yl)-4-methyl-N-(4-methylthiazol-2-yl)hex-4-enamide] |
| 156 µM | 156 µM | 156 µM | COc1ccc2nc(NC(=O)CC/C(C)=C/Cc3c(O)c4c(c(C)c3OC)COC4=O)sc2c1 [Compound 11, (E)-6-(4-Hydroxy-6-methoxy-7-methyl-3-oxo-1,3-dihydroisobenzofuran-5-yl)-N-(6-methoxybenzo[d]thiazol-2-yl)-4-methylhex-4-enamide] |
| – | 96.3 µM | – | COc1c(C)c2c(c(OC)c1C/C=C(\C)CCC(=O)Nc1nccs1)C(=O)OC2 [Compound 15, (E)-6-(4,6-Dimethoxy-7-methyl-3-oxo-1,3-dihydroisobenzofuran-5-yl)-4-methyl-N-(thiazol-2-yl)hex-4-enamide] |
| 26.2 µM | 26.3 µM | – | COc1c(C)c2c(c(O)c1C/C=C(\C)CCC(=O)Nc1nccs1)C(=O)OC2 [Compound 1, (E)-6-(4-Hydroxy-6-methoxy-7-methyl-3-oxo-1,3-dihydroisobenzofuran-5-yl)-4-methyl-N-(thiazol-2-yl)hex-4-enamide] |
